Laboratory results published in US20090226398A1, “ANTI-VIRAL COMPOUNDS, COMPOSITIONS, AND METHODS OF USE” (Genelabs Technologies, Inc., priority 2008, published 2009).

Test system: HCV replication
Assay: Replicon Assay (Huh-lucubineo-ET cells, luciferase readout)
Format: cell-based
Details: Hepatitis C virus; ET (Huh-lucubineo-ET) HCV replicon cell line; luciferase activity 48-72 hours after compound addition; 6 dilutions
In short: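 Huh-lucubineo-ET cells stably carrying a firefly luciferase-ubiquitin-neo/NS3-5B ET replicon (adaptive mutations E1202G, T1280I, K1846T) were plated 24 h before compound, then treated at 5 or 50 μM or six 3-fold dilutions. Luciferase read 48-72 h later; % inhibition vs no-compound control, EC50/TC50 from Hill-equation fit.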

| Compound | EC50 |
| --- | --- |
| COc1ccc(-c2ncc(Cn3cc4nc(-c5cccc(F)c5F)nc-4cn3)cn2)c(C(F)(F)F)c1 [Compound 271, 2-(2,3-Difluoro-phenyl)-5-[2-(4-methoxy-2-trifluoromethyl-phenyl)-pyrimidin-5-ylmethyl]-5H-imidazo[4,5-d]pyridazine] | 0.049 µM |
| Fc1cccc(-c2nc3cnn(Cc4ccc(-c5ccsc5)cc4)cc-3n2)c1F [Compound 272, 2-(2,3-Difluoro-phenyl)-5-(4-thiophen-3-yl-benzyl)-5H-imidazo[4,5-d]pyridazine] | 18.7 µM |
| O=C(Nc1ccccc1)c1ccc(Cn2cc3nc(-c4cccc(F)c4F)nc-3cn2)cc1 [Compound 273, 4-[2-(2,3-Difluoro-phenyl)-imidazo[4,5-d]pyridazin-5-ylmethyl]-N-phenyl-benzamide] | ≥ 50 µM |
| COc1ccc(NC(=O)c2ccc(Cn3cc4nc(-c5cccc(F)c5F)nc-4cn3)cc2)cc1 [Compound 274, 4-[2-(2,3-Difluoro-phenyl)-imidazo[4,5-d]pyridazin-5-ylmethyl]-N-(4-methoxy-phenyl)-benzamide] | ≥ 50 µM |
| O=S(=O)(c1ccc(Cn2cc3nc(-c4cccc(F)c4F)nc-3cn2)cc1)N1CCOCC1 [Compound 275, 2-(2,3-Difluoro-phenyl)-5-[4-(morpholine-4-sulfonyl)-benzyl]-5H-imidazo[4,5-d]pyridazine] | ≥ 50 µM |
| Fc1cccc(-c2nc3cnn(Cc4ccc5nsnc5c4)cc-3n2)c1F [Compound 276, 5-Benzo[1,2,5]thiadiazol-5-ylmethyl-2-(2,3-difluoro-phenyl)-5H-imidazo[4,5-d]pyridazine] | ≥ 50 µM |
| Cc1nc(-c2ccc(Cn3cc4nc(-c5cccc(F)c5F)nc-4cn3)cc2)no1 [Compound 277, 2-(2,3-Difluoro-phenyl)-5-[4-(5-methyl-[1,2,4]oxadiazol-3-yl)-benzyl]-5H-imidazo[4,5-d]pyridazine] | ≥ 50 µM |
| Fc1cccc(-c2nc3cnn(Cc4ccc5ccccc5c4)cc-3n2)c1F [Compound 278, 2-(2,3-Difluoro-phenyl)-5-naphthalen-2-ylmethyl-5H-imidazo[4,5-d]pyridazine] | ≥ 50 µM |
| Fc1cccc(-c2nc3cnn(Cc4cccc(Oc5ccccc5)c4)cc-3n2)c1F [Compound 279, 2-(2,3-Difluoro-phenyl)-5-(3-phenoxy-benzyl)-5H-imidazo[4,5-d]pyridazine] | 20 µM |
| Fc1cccc(-c2nc3cnn(Cc4ccc(OCc5ccccc5)cc4)cc-3n2)c1F [Compound 280, 5-(4-Benzyloxy-benzyl)-2-(2,3-difluoro-phenyl)-5H-imidazo[4,5-d]pyridazine] | ≥ 50 µM |
| Fc1cccc(-c2nc3cnn(Cc4ccc(/C=C/c5ccccc5)cc4)cc-3n2)c1F [Compound 281, 2-(2,3-Difluoro-phenyl)-5-(4-styrylbenzyl)-5H-imidazo[4,5-d]pyridazine] | 1.8 µM |
| Fc1cccc(-c2nc3cnn(Cc4ccc(-c5ccccc5)cc4)cc-3n2)c1F [Compound 282, 5-Biphenyl-4-ylmethyl-2-(2,3-difluoro-phenyl)-5H-imidazo[4,5-d]pyridazine] | 0.69 µM |
| Fc1cccc(-c2nc3cnn(Cc4ccc5occc5c4)cc-3n2)c1F [Compound 283, 5-Benzofuran-5-ylmethyl-2-(2,3-difluoro-phenyl)-5H-imidazo[4,5-d]pyridazine] | ≥ 50 µM |
| Fc1cccc(-c2nc3cnn(Cc4ccc5sccc5c4)cc-3n2)c1F [Compound 284, 5-Benzothiophen-5-ylmethyl-2-(2,3-difluoro-phenyl)-5H-imidazo[4,5-d]pyridazine] | ≥ 50 µM |
| O=[N+]([O-])c1ccc(-c2ccc(Cn3cc4nc(-c5cccc(F)c5F)nc-4cn3)cn2)c(C(F)(F)F)c1 [Compound 285, 2-(2,3-Difluoro-phenyl)-5-[6-(4-nitro-2-trifluoromethyl-phenyl)-pyridin-3-ylmethyl]-5H-imidazo[4,5-d]pyridazine] | 0.284 µM |
| O=[N+]([O-])c1cc(C(F)(F)F)ccc1-c1ccc(Cn2cc3nc(-c4cccc(F)c4F)nc-3cn2)cn1 [Compound 286, 2-(2,3-Difluoro-phenyl)-5-[6-(2-nitro-4-trifluoromethyl-phenyl)-pyridin-3-ylmethyl]-5H-imidazo[4,5-d]pyridazine] | 0.059 µM |
| COc1cccc(Cn2cc3nc(-c4cccc(F)c4F)nc-3cn2)c1 [Compound 287, 2-(2,3-Difluoro-phenyl)-5-(3-methoxy-benzyl)-5H-imidazo[4,5-d]pyridazine] | ≥ 50 µM |
| COC(=O)c1cc(Cn2cc3nc(-c4cccc(F)c4F)nc-3cn2)ccc1-c1ccc(OC)cc1C(F)(F)F [Compound 288, 4-[2-(2,3-Difluoro-phenyl)-imidazo[4,5-d]pyridazin-5-ylmethyl]-4′-methoxy-2′-trifluoromethyl-biphenyl-2-carboxylic acid methyl ester] | 0.2 µM |
| Fc1cccc(-c2nc3cnn(Cc4cccc(C(F)(F)F)c4)cc-3n2)c1F [Compound 289, 2-(2,3-Difluoro-phenyl)-5-(3-trifluoromethyl-benzyl)-5H-imidazo[4,5-d]pyridazine] | ≥ 50 µM |

| Compound | EC50 |
| --- | --- |
| O=[N+]([O-])c1cccc(Cn2cc3nc(-c4cccc(F)c4F)nc-3cn2)c1 [Compound 290, 2-(2,3-Difluoro-phenyl)-5-(3-nitro-benzyl)-5H-imidazo[4,5-d]pyridazine] | ≥ 50 µM |
| Fc1cccc(-c2nc3cnn(Cc4cccc(-n5cccn5)c4)cc-3n2)c1F [Compound 291, 2-(2,3-Difluoro-phenyl)-5-(3-pyrazol-1-yl-benzyl)-5H-imidazo[4,5-d]pyridazine] | ≥ 50 µM |
| Fc1cccc(-c2nc3cnn(Cc4cccc5ccccc45)cc-3n2)c1F [Compound 292, 2-(2,3-Difluoro-phenyl)-5-naphthalen-1-ylmethyl-5H-imidazo[4,5-d]pyridazine] | ≥ 50 µM |
| Fc1cccc(-c2nc3cnn(Cc4ccc(-c5cncnc5)cc4)cc-3n2)c1F [Compound 293, 2-(2,3-Difluoro-phenyl)-5-(4-pyrimidin-5-yl-benzyl)-5H-imidazo[4,5-d]pyridazine] | ≥ 50 µM |
| COc1ccc(-c2ccc(Cn3cc4nc(-c5cccc(F)c5F)nc-4cn3)c(OC)c2)c(C(F)(F)F)c1 [Compound 294, 2-(2,3-Difluoro-phenyl)-5-(3,4′-dimethoxy-2′-trifluoromethyl-biphenyl-4-ylmethyl)-5H-imidazo[4,5-d]pyridazine] | 0.473 µM |
| CCCOc1ccc(-c2cnc(Cn3cc4nc(-c5cccc(F)c5F)nc-4cn3)cn2)c(C(F)(F)F)c1 [Compound 295, 2-(2,3-Difluoro-phenyl)-5-[5-(4-propoxy-2-trifluoromethyl-phenyl)-pyrazin-2-ylmethyl]-5H-imidazo[4,5-d]pyridazine] | 0.026 µM |
| CCCOc1ccc(-c2ccc(Cn3cc4nc(-c5cccc(F)c5F)nc-4cn3)nc2)c(C(F)(F)F)c1 [Compound 296, 2-(2,3-Difluoro-phenyl)-5-[5-(4-propoxy-2-trifluoromethyl-phenyl)-pyridin-2-ylmethyl]-5H-imidazo[4,5-d]pyridazine] | 0.023 µM |
| Fc1ccc(COc2ccc(Cn3cc4nc(-c5cccc(F)c5F)nc-4cn3)cc2)cc1 [Compound 297, 2-(2,3-Difluoro-phenyl)-5-[4-(4-fluoro-benzyloxy)-benzyl]-5H-imidazo[4,5-d]pyridazine] | 5.74 µM |
| Fc1cccc(-c2nc3cnn(Cc4ccc(-c5ccc(Br)c(C(F)(F)F)c5)nc4)cc-3n2)c1F [Compound 298, 5-[6-(4-Bromo-3-trifluoromethyl-phenyl)-pyridin-3-ylmethyl]-2-(2,3-difluorophenyl)-5H-imidazo[4,5-d]pyridazine] | ≥ 50 µM |
| Fc1cccc(-c2nc3cnn(Cc4ccc(-c5ccccn5)cc4)cc-3n2)c1F [Compound 299, 2-(2,3-Difluoro-phenyl)-5-(4-pyridin-2-yl-benzyl)-5H-imidazo[4,5-d]pyridazine] | ≥ 50 µM |
| Fc1cccc(-c2nc3cnn(Cc4cccc(OC(F)(F)F)c4)cc-3n2)c1F [Compound 300, 2-(2,3-Difluoro-phenyl)-5-(3-trifluoromethoxy-benzyl)-5H-imidazo[4,5-d]pyridazine] | ≥ 50 µM |
| Fc1cccc(-c2nc3cnn(Cc4cccc(-c5ccncc5)c4)cc-3n2)c1F [Compound 301, 2-(2,3-Difluoro-phenyl)-5-(3-pyridin-4-yl-benzyl)-5H-imidazo[4,5-d]pyridazine] | 35 µM |
| Fc1cccc(-c2nc3cnn(Cc4ccc5ncccc5c4)cc-3n2)c1F [Compound 302, 6-[2-(2,3-Difluoro-phenyl)-imidazo[4,5-d]pyridazin-5-ylmethyl]-quinoline] | ≥ 50 µM |
| Fc1cccc(-c2nc3cnn(Cc4ccc(N5CCOCC5)cc4)cc-3n2)c1F [Compound 303, 2-(2,3-Difluoro-phenyl)-5-(4-morpholin-4-yl-benzyl)-5H-imidazo[4,5-d]pyridazine] | 8.53 µM |
| Fc1cccc(-c2nc3cnn(Cc4ccc(N5CCCCC5)cc4)cc-3n2)c1F [Compound 304, 2-(2,3-Difluoro-phenyl)-5-(4-piperidin-1-yl-benzyl)-5H-imidazo[4,5-d]pyridazine] | 3.87 µM |
| CC(c1ccc(-c2ccc(C(F)(F)F)cc2C(F)(F)F)cn1)n1cc2nc(-c3cccc(F)c3F)nc-2cn1 (centres unmarked) [Compound 305, 5-{1-[5-(2,4-Bis-trifluoromethyl-phenyl)-pyridin-2-yl]-ethyl}-2-(2,3-difluoro-phenyl)-5H-imidazo[4,5-d]pyridazine] | 0.278 µM |
| COc1ccc(-c2cnc(Cn3cc4nc(-c5cccc(F)c5F)nc-4cn3)cn2)c(C(F)(F)F)c1 [Compound 306, 2-(2,3-Difluoro-phenyl)-5-[5-(4-methoxy-2-trifluoromethyl-phenyl)-pyrazin-2-ylmethyl]-5H-imidazo[4,5-d]pyridazine] | 0.023 µM |
| Fc1cccc(-c2nc3cnn(Cc4ccc(Cl)nn4)cc-3n2)c1F [Compound 307, 5-(6-Chloro-pyridazin-3-ylmethyl)-2-(2,3-difluoro-phenyl)-5H-imidazo[4,5-d]pyridazine] | ≥ 50 µM |
| Fc1cccc(-c2nc3cnn(Cc4ccc(-n5cccn5)cc4)cc-3n2)c1F [Compound 308, 2-(2,3-Difluoro-phenyl)-5-(4-pyrazol-1-yl-benzyl)-5H-imidazo[4,5-d]pyridazine] | ≥ 50 µM |
